{"source": "paper PMC4992173", "about": "“Divergent synthesis and identification of the cellular targets of deoxyelephantopins” (Nature Communications, 2016)", "assay_type_in_all_cases": "cell-based", "key": {"[1]": {"target": "T1, Thioredoxin domain-containing protein 12 (TXNDC12) (Homo sapiens, UniProt O95881)", "T1 construct": "endogenous in cells; host or cells: MCF7", "T1 sequence (O95881 27-172)": "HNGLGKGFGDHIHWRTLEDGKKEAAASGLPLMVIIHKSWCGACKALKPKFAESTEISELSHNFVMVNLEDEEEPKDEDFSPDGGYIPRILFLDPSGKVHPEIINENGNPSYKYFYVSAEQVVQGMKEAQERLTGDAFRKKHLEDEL", "assay": "In situ competitive profiling in live MCF7 cells (LFQ): TXNDC12", "conditions": "4 h, then 10 µM 24c, n=4", "text": "(§1) In our efforts to determine the direct molecular targets of deoxyelephantopin we first performed a gel-based competitive in situ proteomic profiling assay[41] […] While the greater conformational flexibility of probe 24c could potentially lead to more promiscuous target engagement relatively to deoxyelephantopin, it was favoured based on the fact that an alkyne moiety appended to the rigid scaffold of deoxyelephantopin may hinder some of its interactions. MCF7 cells were pretreated with various concentrations of deoxyelephantopin for 4 h, harvested, lysed and the lysates were treated with the fluorogenic probe 24c-Cy3 (10 μM; Supplementary Fig. 10). […] Furthermore, cells were pretreated with 20 μM concentration of deoxyelephantopin or 24c and the proteomic profiles were compared (Fig. 6b, Supplementary Fig. 11). Multiple bands were detected that were equally competed by both DEP and 24c, thus again confirming that 24c can be used as an acceptable clickable analogue of deoxyelephantopin in pulldown assays. Having established the optimal labelling conditions by SDS–PAGE, we next carried out a mass spectrometry-based competitive profiling assay[42] coupled with the method of stable isotope labelling of amino acids in culture (SILAC)[43]. […]\n(§2) Figure 6 Proteome-wide identification of deoxyelephantopin targets. […] Quantification was performed using label-free quantification (LFQ) method (n=4). […]"}, "[2]": {"target": "T2, Cystatin-B (CSTB) (Homo sapiens, UniProt P04080)", "T2 construct": "endogenous in cells; host or cells: MCF7", "T2 sequence (P04080 whole entry)": "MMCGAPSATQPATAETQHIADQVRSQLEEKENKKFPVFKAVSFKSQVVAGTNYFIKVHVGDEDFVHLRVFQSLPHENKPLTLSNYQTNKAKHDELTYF", "assay": "In situ competitive profiling in live MCF7 cells (LFQ): CSTB", "conditions": "protein CSTB, 4 h, then 10 µM 24c, n=4", "text": "as §1, §2"}, "[3]": {"target": "T3, FLYWCH family member 2 (FLYWCH2) (Homo sapiens, UniProt Q96CP2)", "T3 construct": "endogenous in cells; host or cells: MCF7", "T3 sequence (Q96CP2 whole entry)": "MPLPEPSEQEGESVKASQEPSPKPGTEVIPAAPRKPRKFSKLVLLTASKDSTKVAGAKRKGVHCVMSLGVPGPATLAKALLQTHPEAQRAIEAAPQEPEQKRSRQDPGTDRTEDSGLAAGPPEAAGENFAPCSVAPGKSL", "assay": "In situ competitive profiling in live MCF7 cells (LFQ): FLYWCH2", "conditions": "protein FLYWCH2, 4 h, then 10 µM 24c, n=4", "text": "as §1, §2"}}, "data": [{"smiles": "C=C(C)C(=O)O[C@H]1CC2=C[C@@H](C/C(C)=C/[C@H]3OC(=O)C(=C)[C@H]13)OC2=O", "note": "[deoxyelephantopin]", "values": [{"measurement": "LFQ ratio 20 µM Deoxyelephantopin/DMSO with 24c", "setting": "[1]", "value": 0.0425}, {"measurement": "LFQ ratio 20 µM Deoxyelephantopin/DMSO with 24c", "setting": "[2]", "value": 0.28}, {"measurement": "LFQ ratio 20 µM Deoxyelephantopin/DMSO with 24c", "setting": "[3]", "value": 0.19}]}]}
